The source of these data is ChEMBL document CHEMBL1909046, “DrugMatrix in vitro pharmacology data”.

Assay [1] can be described thus: DRUGMATRIX: Glutamate, Kainate radioligand binding (ligand: [3H] Kainic acid). The note with it: Not Active = under 50% inhibition at 10 µM. It counts as cell membranes, Rattus norvegicus, Wistar, Brain, Membrane.
Assay [2] is described as follows: DRUGMATRIX: Leukotriene, BLT (LTB4) radioligand binding (ligand: [3H]LTB4). It counts as cell membranes, Membrane. The settings on record: u-937; Not Active = under 50% inhibition at 10 µM.
For a further assay, the target named is T1, Leukotriene C4 synthase (Cavia porcellus, UniProt A6XA80).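 Note: enzyme inhibition assay of leukotriene C4 synthase, using LTA4 as the substrate; in other assays of this panel Not Active means under 50% inhibition at 10 µM.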
T1 sequence (A6XA80 whole entry): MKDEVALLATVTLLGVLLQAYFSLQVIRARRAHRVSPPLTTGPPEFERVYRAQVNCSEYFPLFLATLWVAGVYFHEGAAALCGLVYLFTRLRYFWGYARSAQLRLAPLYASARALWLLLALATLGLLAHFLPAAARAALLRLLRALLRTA
The experiment in a line: biochemical. Type of assay: tissue-based, Lung.

Assay [3] concerns the target T2, Muscarinic acetylcholine receptor M2 (Homo sapiens, UniProt P08172). Note: in other assays of this panel Not Active means under 50% inhibition at 10 µM.
T2 sequence (P08172 whole entry): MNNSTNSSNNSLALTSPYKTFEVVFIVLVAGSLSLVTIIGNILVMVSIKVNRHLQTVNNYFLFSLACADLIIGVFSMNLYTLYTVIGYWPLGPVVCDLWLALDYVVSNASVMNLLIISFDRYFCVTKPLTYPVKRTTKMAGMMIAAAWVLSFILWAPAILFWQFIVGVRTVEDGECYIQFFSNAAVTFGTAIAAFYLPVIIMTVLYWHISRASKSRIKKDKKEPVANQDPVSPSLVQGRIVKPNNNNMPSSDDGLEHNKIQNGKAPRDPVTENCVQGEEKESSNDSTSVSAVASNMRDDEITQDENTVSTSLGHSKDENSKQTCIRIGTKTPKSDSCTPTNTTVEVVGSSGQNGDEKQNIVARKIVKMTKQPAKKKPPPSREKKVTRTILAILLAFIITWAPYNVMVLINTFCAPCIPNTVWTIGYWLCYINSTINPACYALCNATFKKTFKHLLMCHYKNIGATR
Type of assay: cell membranes, CHO-K1, Membrane. The note with it: cho-k1.

For assay [4], the target named is T3, Angiotensin-converting enzyme (Oryctolagus cuniculus, UniProt P12822).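 Note: enzymatic inhibition of angiotensin-converting enzyme measured with FAPGG as the substrate; in other assays of this panel Not Active means under 50% inhibition at 10 µM.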
T3 sequence (P12822 whole entry): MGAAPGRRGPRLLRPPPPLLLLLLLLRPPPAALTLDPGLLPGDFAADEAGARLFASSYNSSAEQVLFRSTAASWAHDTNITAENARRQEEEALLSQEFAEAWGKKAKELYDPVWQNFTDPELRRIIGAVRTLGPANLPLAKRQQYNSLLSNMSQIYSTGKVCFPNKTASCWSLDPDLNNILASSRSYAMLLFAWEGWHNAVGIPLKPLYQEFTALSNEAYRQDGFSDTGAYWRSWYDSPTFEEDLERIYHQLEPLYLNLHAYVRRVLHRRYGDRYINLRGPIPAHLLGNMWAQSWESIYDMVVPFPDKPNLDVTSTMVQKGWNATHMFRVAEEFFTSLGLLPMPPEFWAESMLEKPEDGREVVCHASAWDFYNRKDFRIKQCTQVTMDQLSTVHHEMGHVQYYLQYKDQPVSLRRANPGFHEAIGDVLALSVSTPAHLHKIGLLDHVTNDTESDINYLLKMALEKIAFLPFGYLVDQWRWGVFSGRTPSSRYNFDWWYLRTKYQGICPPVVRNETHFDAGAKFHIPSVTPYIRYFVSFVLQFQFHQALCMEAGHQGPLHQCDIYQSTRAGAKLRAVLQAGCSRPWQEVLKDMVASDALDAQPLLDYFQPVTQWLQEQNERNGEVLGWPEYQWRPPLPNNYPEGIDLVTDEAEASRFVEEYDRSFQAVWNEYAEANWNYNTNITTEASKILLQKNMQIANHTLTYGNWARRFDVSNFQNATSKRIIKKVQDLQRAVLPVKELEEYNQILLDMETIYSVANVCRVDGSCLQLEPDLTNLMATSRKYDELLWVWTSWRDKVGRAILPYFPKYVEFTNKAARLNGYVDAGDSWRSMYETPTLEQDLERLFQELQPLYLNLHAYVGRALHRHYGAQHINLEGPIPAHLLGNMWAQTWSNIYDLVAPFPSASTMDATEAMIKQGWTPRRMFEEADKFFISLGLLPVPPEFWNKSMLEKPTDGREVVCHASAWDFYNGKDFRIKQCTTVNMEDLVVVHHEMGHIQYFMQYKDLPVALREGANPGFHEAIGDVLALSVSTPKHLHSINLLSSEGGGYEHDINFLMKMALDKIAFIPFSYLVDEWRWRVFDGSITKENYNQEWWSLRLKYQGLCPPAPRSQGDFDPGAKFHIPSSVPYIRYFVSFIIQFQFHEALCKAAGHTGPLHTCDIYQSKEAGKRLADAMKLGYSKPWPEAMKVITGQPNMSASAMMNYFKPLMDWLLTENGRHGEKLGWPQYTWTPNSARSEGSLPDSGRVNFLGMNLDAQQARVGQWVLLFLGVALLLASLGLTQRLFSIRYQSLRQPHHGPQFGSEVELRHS
In words: biochemical. It counts as tissue-based, Lung.

Assay [5] concerns the target Mitogen-activated protein kinase 14 (Homo sapiens, UniProt Q16539). On the set-up: species or system Escherichia coli.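 Note: inhibition of p38alpha enzyme activity in a biochemical kinase assay, with myelin basic protein serving as substrate; in other assays of this panel Not Active means under 50% inhibition at 10 µM.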
In another assay the target is Adenosine receptor A2a (Homo sapiens, UniProt P29274). The experiment in a line: DRUGMATRIX: Adenosine A2A radioligand binding (ligand: […]). Type of assay: cell membranes, HEK293, Membrane. The note with it: hek293; Not Active = under 50% inhibition at 10 µM.

For orientation: IC50 means the point on the concentration scale where inhibition reaches its midpoint.

Adenosine receptor A2a, sequence (P29274 whole entry): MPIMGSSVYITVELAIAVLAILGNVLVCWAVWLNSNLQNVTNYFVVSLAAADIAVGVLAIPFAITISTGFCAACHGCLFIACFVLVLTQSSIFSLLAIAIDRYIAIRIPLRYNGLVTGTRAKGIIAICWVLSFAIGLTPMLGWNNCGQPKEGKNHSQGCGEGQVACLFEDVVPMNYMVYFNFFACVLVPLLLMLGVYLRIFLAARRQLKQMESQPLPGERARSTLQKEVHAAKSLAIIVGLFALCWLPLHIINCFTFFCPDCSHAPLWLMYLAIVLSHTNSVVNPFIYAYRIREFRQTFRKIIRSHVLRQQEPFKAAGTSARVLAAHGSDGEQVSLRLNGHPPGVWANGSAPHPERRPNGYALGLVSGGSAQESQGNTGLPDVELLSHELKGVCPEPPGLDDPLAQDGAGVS
Mitogen-activated protein kinase 14, sequence (Q16539 whole entry): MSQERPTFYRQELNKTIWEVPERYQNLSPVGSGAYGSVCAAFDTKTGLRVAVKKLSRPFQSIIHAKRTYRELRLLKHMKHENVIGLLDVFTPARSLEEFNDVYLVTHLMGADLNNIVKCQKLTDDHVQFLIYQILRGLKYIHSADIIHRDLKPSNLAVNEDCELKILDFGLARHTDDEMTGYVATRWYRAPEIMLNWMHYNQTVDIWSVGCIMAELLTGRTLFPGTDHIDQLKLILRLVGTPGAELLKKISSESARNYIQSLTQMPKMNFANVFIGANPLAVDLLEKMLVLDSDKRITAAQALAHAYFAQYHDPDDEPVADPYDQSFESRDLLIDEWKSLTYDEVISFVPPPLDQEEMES

On to `Cc1cnc(NC(=O)C2=C(O)c3ccccc3S(=O)(=O)N2C)s1` [MELOXICAM], for which the IC50 result (in assay [1]; in assay [2]; against Leukotriene C4 synthase; in assay [3]; in assay [4]; in assay [5]) was “Not Active” in each case. The IC50 result at Adenosine receptor A2a is listed as “Not Active”. The Ki entry in assay [1] and in assay [2] was “Not Active” each time.
Regarding `CN1C[C@H](CNC(=O)OCc2ccccc2)C[C@@H]2c3cccc4c3c(cn4C)C[C@H]21` [METERGOLINE], the IC50 result (in assay [1]; in assay [2]; on Leukotriene C4 synthase; in assay [3]; in assay [4]; in assay [5]) was “Not Active” each time. The IC50 entry at Adenosine receptor A2a is “Not Active”. The Ki entry in assay [1] and in assay [2] was “Not Active” each time.
In the case of `CCN(CC)CCNC(=O)c1cc(Cl)c(N)cc1OC` [METOCLOPRAMIDE], the IC50 entry (in assay [1]; in assay [2]; at Leukotriene C4 synthase; in assay [3]; in assay [4]; in assay [5]) was “Not Active” throughout. Also, the IC50 result at Adenosine receptor A2a is on record as “Not Active”. Besides, the Ki result in assay [1] and in assay [2] was “Not Active” throughout.
`CC[C@H](C)C(=O)O[C@H]1CCC=C2C=C[C@H](C)[C@H](CC[C@@H]3C[C@@H](O)CC(=O)O3)[C@H]21` [MEVASTATIN]: the concentration for half-maximal inhibition (IC50) result (in assay [1]; in assay [2]; against Leukotriene C4 synthase; in assay [3]; in assay [4]; in assay [5]) was “Not Active” each time. In addition, the IC50 result at Adenosine receptor A2a is on record as “Not Active”. In addition, the Ki entry in assay [1] and in assay [2] was “Not Active” each time.
As for `CC#C[C@]1(O)CC[C@H]2[C@@H]3CCC4=CC(=O)CCC4=C3[C@@H](c3ccc(N(C)C)cc3)C[C@@]21C` [MIFEPRISTONE], the IC50 entry in assay [1] was “Not Active”; in assay [2], “Not Active”; against Leukotriene C4 synthase it was “Not Active”; in assay [3], “Not Active”; in assay [4] it was “Not Active”; in assay [5] (read-out: IC50), 83.1 µM. Further, the half-inhibitory concentration (IC50) result on Adenosine receptor A2a was “Not Active”. The Ki result in assay [1] and in assay [2] was “Not Active” throughout.
Turning to `Cc1[nH]c(=O)c(C#N)cc1-c1ccncc1` [MILRINONE], the half-inhibitory concentration (IC50) result (in assay [1]; in assay [2]; against Leukotriene C4 synthase; in assay [3]; in assay [4]; in assay [5]) was “Not Active” in each case. Further, the concentration for half-maximal inhibition (IC50) result at Adenosine receptor A2a is given as “Not Active”. Further, the Ki entry in assay [1] and in assay [2] was “Not Active” in each case.
For the compound `CO[C@@]12[C@H](COC(N)=O)C3=C(C(=O)C(C)=C(N)C3=O)N1C[C@@H]1N[C@@H]12` [MITOMYCIN], the IC50 result (in assay [1]; in assay [2]; against Leukotriene C4 synthase; in assay [3]; in assay [4]; in assay [5]) was “Not Active” each time. Further, the IC50 result at Adenosine receptor A2a is “Not Active”. Further, the Ki entry in assay [1] and in assay [2] was “Not Active” throughout.
For `CCOc1cc(N)c(Cl)cc1C(=O)NCC1CN(Cc2ccc(F)cc2)CCO1` (stereo not given) [MOSAPRIDE], the 50% inhibitory concentration (IC50) result (in assay [1]; in assay [2]; against Leukotriene C4 synthase; in assay [3]; in assay [4]; in assay [5]) was “Not Active” throughout. On Adenosine receptor A2a, the 50% inhibitory concentration (IC50) result is on record as “Not Active”. Further, the Ki entry in assay [1] and in assay [2] was “Not Active” throughout.
Regarding `CCN(CC)N=O` [N-NITROSODIETHYLAMINE], the IC50 result (in assay [1]; in assay [2]; on Leukotriene C4 synthase; in assay [3]; in assay [4]; in assay [5]) was “Not Active” each time. The IC50 result on Adenosine receptor A2a is given as “Not Active”. Further, the Ki entry in assay [1] and in assay [2] was “Not Active” throughout.
Consider `O=C1CC[C@@]2(O)[C@H]3Cc4ccc(O)c5c4[C@@]2(CCN3CC2CC2)[C@H]1O5` [NALTREXONE], for which the IC50 entry (in assay [1]; in assay [2]; against Leukotriene C4 synthase; in assay [3]; in assay [4]; in assay [5]) was “Not Active” throughout. Further, the IC50 entry on Adenosine receptor A2a was “Not Active”. Besides, the Ki entry in assay [1] and in assay [2] was “Not Active” each time.
Turning to `Oc1ccc(/C=C/c2cc(O)cc(O)c2)cc1` [RESVERATROL], the IC50 entry (in assay [1]; in assay [2]; on Leukotriene C4 synthase; in assay [3]; in assay [4]; in assay [5]) was “Not Active” in each case. Further, the IC50 entry on Adenosine receptor A2a was “Not Active”. The Ki entry in assay [1] and in assay [2] was “Not Active” in each case.
Turning to `CC(N)C12CC3CC(CC(C3)C1)C2` (stereo not given) [RIMANTADINE], the IC50 entry (in assay [1]; in assay [2]; against Leukotriene C4 synthase; in assay [3]; in assay [4]; in assay [5]) was “Not Active” each time. Also, at Adenosine receptor A2a, the half-inhibitory concentration (IC50) result is recorded as “Not Active”. In addition, the Ki entry in assay [1] and in assay [2] was “Not Active” in each case.
For the compound `CS(=O)(=O)c1ccc(C2=C(c3ccccc3)C(=O)OC2)cc1` [ROFECOXIB], the half-inhibitory concentration (IC50) result (in assay [1]; in assay [2]; against Leukotriene C4 synthase; in assay [3]; in assay [4]; in assay [5]) was “Not Active” in each case. The IC50 entry at Adenosine receptor A2a is given as “Not Active”. Also, the Ki entry in assay [1] and in assay [2] was “Not Active” throughout.
For `C=CCc1ccc2c(c1)OCO2` [SAFROLE], the IC50 result (in assay [1]; in assay [2]; against Leukotriene C4 synthase; in assay [3]; in assay [4]; in assay [5]) was “Not Active” throughout. The IC50 entry on Adenosine receptor A2a is recorded as “Not Active”. In addition, the Ki entry in assay [1] and in assay [2] was “Not Active” each time.
For `CCC(C)(C)C(=O)O[C@H]1C[C@@H](C)C=C2C=C[C@H](C)[C@H](CC[C@@H]3C[C@@H](O)CC(=O)O3)[C@H]21` [SIMVASTATIN], the IC50 result (in assay [1]; in assay [2]; at Leukotriene C4 synthase; in assay [3]; in assay [4]; in assay [5]) was “Not Active” throughout. At Adenosine receptor A2a, the IC50 entry is recorded as “Not Active”. The Ki entry in assay [1] and in assay [2] was “Not Active” in each case.
